From patent publication US5939403A, “Keratan sulfate oligosaccharide fraction and pharmaceutical containing the same” (Seikagaku Corporation, priority 1994, dated 1999)
Structures can show the parent of a compound that is named as a salt.

Assays:
submandibular lymph node [1] = assay: Observation of apoptic body in submandibular lymph node sections (HE staining); type: in vivo, MRL-lpr/lpr mice; details: any dose (1, 5, 25 mg/kg i.m.), four weeks
submandibular lymph node [2] = assay: Apoptosis induction: TdT-mediated nick end labeling of submandibular lymph node; type: in vivo, MRL-lpr/lpr mice; details: four weeks
Experimental: The PBS solution of the purified keratan sulfate disaccharide (III) which was prepared in Example 1 described above at a dose of 1 mg/kg, 5 mg/kg, or 25 mg/kg weight (hereinafter referred to as the 1 mg/kg administered group, the 5 mg/kg administered group, and the 25 mg/kg administered group, respectively), and PBS as the control (hereinafter sometimes referred to as the control group) was intramuscularly injected, respectively, to the femoral region of MRL-lpr/lpr mice seven times a week for four weeks. After that, the mice were subjected to anatomization to prepare the section specimens of submandibular lymph node (stained by the method of Gavrieli et al.; Terminal deoxynucleotidyl transferase (TdT)--mediated nick end labeling method; (J. Cell Biol., 119, 493-501 (1992))). In this staining method, apoptosis induced cells can be detected by detecting fragmented DNA ends. The specimens prepared was observed by a light microscope to determine the number of stained cells (the apoptosis induced cells; hereinafter sometimes referred to as the apoptosis cells) per unit area. In the figure, * and ** represent that they have the significant difference with p<0.05 and p<0.01, respectively (wherein "p" means a level of significance by the Bonferroni multiple comparative test). In each group, six mice were used.

MRL-lpr/lpr mice [3] = assay: Repeated intramuscular administration for 56 days in MRL mice (lymph node weight); type: in vivo
Experimental: (§1) The effect of the keratan sulfate oligosaccharide was examined on MRL mice which are autoimmune disease model mice.
The PBS solution of the purified keratan sulfate disaccharide (III) which was prepared in Example 1 described above at a dose of 2.5 mg/kg, 5 mg/kg, or 10 mg/kg weight (hereinafter referred to as the 2.5 mg/kg administered group, the 5 mg/kg administered group, and the 10 mg/kg administered group, respectively), and PBS as the control (hereinafter sometimes referred to as the control group) was intramuscularly injected, respectively, to the femoral region of MRL-lpr/lpr mice seven times a week for eight weeks. After that, the mice were subjected to anatomization, and the weight of mesenteric lymph nodes and submandibular lymph nodes were determined to obtain the average weight, respectively. The results concerning mesenteric lymph nodes and submandibular lymph nodes are shown in FIG. 15 and FIG. 16 with the standard errors, respectively. In each group, seven mice were used.

lymphocytes = assay: Cell differentiation induction: lymphocyte surface antigen of lymph node; type: in vivo, MRL-lpr/lpr mice; details: 10 mg/kg i.m., eight weeks; vs control, 2.5 and 5 mg/kg
Experimental: The PBS solution of the purified keratan sulfate disaccharide (III) which was prepared in Example 1 described above at a dose of 2.5 mg/kg, 5 mg/kg, or 10 mg/kg weight (hereinafter referred to as the 2.5 mg/kg administered group, the 5 mg/kg administered group, and the 10 mg/kg administered group, respectively), and PBS as the control (hereinafter sometimes referred to as the control group) was intramuscularly injected, respectively, to the femoral region of MRL-lpr/lpr mice seven times a week for eight weeks. After that, the mice were subjected to anatomization, and the lymph nodes were minced on a cell strainer (Falcon 2350) to prepare the lymphocyte. The lymphocyte prepared of each group was subjected to the double immune staining with the anti-CD3 antibody (Seikagaku Corporation) and the anti-CD4 antibody (Pharminjen), that with the anti-CD3 antibody and the anti-CD8a antibody (Pharminjen), and that with the anti-CD3 antibody and the anti-B220 antibody (Pharminjen), respectively. The CD3, CD4, and CDBa are cell surface antigens which are expressed on T cells, and the B220 is that expressed on B cells. And it is known that no expression of these cell surface antigens is observed on null lymphocytes.
The proportion (%) of the CD3 and CD4 positive cells (hereinafter sometimes referred to as "the CD3+CD4+cells"; mainly helper T cells) to all the lymphocytes and the standard errors are shown in FIG. 19, that of the CD3 and CD8a positive cells (hereinafter sometimes referred to as "the CD3+CD8a+cells"; mainly suppressor T cells and cytotoxic T cells) and the standard errors are shown in FIG. 20, and that of the CD3 and B220 positive cells (hereinafter sometimes referred to as "the CD3+B220+cells";abnormal T cells having the surface antigens of B cells) and the standard errors are shown in FIG. 21. In the figures, * represents that it has the significant difference with p<0.05 (wherein "p" means a level of significance by the Ryan multiple comparative test). In each group, seven mice were used.

carrageenin pleurisy = assay: Carrageenin pleurisy model; type: in vivo, Female S.D. rats; details: six hours
Experimental: The effect of the keratan sulfate oligosaccharide was examined with the carrageenin pleurisy model of rats which is generally used for evaluation of anti-inflammatory agents.
Female S.D. rats (n=37) of about 150 to 170 g weight were used for the test. The λ-carrageenin (Sigma) was dissolved in saline to a concentration of 2%, and the solution was filtered with a 0.8 μm filter. The carrageenin solution obtained was intrathoracically administered at 100 μl/animal to prepare the pleurisy model.
To the pleurisy model of rats (n=19) described above, the keratan sulfate tetrasaccharide (I) dissolved in PBS was subcutaneously (s.c.) administered in 20 mg/kg or 10 mg/kg dose. And as the positive control, steroid (dexamethasone acetate; Banyu Pharmaceutical) was subcutaneously administered to the eight rats described above in 150 μg/kg which was the clinical dose. As the negative control, PBS was subcutaneously administered to the 10 rats. Each administration was carried out immediately after the administration of carrageenin.
Each rat was anatomized six hours after the administration of λ-carrageenin. The thoracic cavity of the rats was opened to collect the retained pleural fluid using a 2-ml syringe with probe. After that, inside of the thoracic cavity was washed with 1 ml of saline, and the washing solution was recovered. The volume of the pleural fluid recovered with the syringe was determined, and the number of leukocyte (cell number) in the pleural fluid was determined by an automatic cytometer. The results are be shown in FIG. 8 and FIG. 9, respectively. In the figures, * and ** represent that they have the significant difference with p<0.05 and p<0.01, respectively (wherein "p" means a level of significance by the Duncan test).

MRL-lpr/lpr mice [4] = assay: Repeated intramuscular administration for four weeks in MRL mice (spleen and mesenteric lymph node weight); type: in vivo
Experimental: as §1
The PBS solution of the purified keratan sulfate tetrasaccharide (I) (100 mg/ml) which was prepared in Example 1 described above at a dose of 10 mg/kg weight (hereinafter referred to as the administered group), and PBS as the control was intramuscularly injected, respectively, to the femoral region of MRL-lpr/lpr mice five times a week for four weeks. After that, the mice were subjected to anatomization, and the weight of spleens and mesenteric lymph nodes were determined to obtain the average weight. In the table, "n" represents the number of mice used.

| SMILES | existence of the apoptic body (submandibular lymph node [1]) | number of the apoptosis cells (FIG. 22) (submandibular lymph node [2]; 5 mg/kg i.m.) | number of the apoptosis cells (FIG. 22) (submandibular lymph node [2]; any dose (1, 5, 25 mg/kg i.m.)) | weight increase in mesenteric lymph nodes (FIG. 15) (MRL-lpr/lpr mice [3]; 2.5 mg/kg i.m.) | weight increase in mesenteric lymph nodes and submandibular lymph nodes (FIG. 15, FIG. 16) (MRL-lpr/lpr mice [3]; 10 mg/kg i.m.) | proportion of CD3+B220+ cells (FIG. 21) (lymphocytes) | proportion of CD3+CD4+ cells (FIG. 19) (lymphocytes) | proportion of CD3+CD8a+ cells (FIG. 20) (lymphocytes) | number of leukocyte in pleural fluid (FIG. 9) (carrageenin pleurisy; 10 mg/kg and 20 mg/kg s.c.) | volume of pleural fluid (FIG. 8) (carrageenin pleurisy; 10 mg/kg s.c.) | volume of pleural fluid (FIG. 8), dose comparison (carrageenin pleurisy; 10 mg/kg vs 20 mg/kg s.c.) | weight increase in spleens and mesenteric lymph nodes (result in words) (MRL-lpr/lpr mice [4]; 10 mg/kg i.m.) | Spleen Weight (MRL-lpr/lpr mice [4]; 10 mg/kg i.m. five times a week, n = 9, mean ± standard error, control 1013 ± 233) | Mesenteric Lymph Node Weight (MRL-lpr/lpr mice [4]; 10 mg/kg i.m. five times a week, n = 9, mean ± standard error, control 1563 ± 352) |
| --- | --- | --- | --- | --- | --- | --- | --- | --- | --- | --- | --- | --- | --- | --- |
| CC(=O)N[C@H]1C(O)O[C@H](COS(=O)(=O)O)[C@@H](O[C@@H]2O[C@H](COS(=O)(=O)O)[C@H](O)[C@H](O)[C@H]2O)[C@@H]1O (stereo partly drawn) [keratan sulfate disaccharide (III), Gal(6S)β1-4GlcNAc(6S)] | the scattering of the apoptic body was observed | the number of the apoptosis cells increased significantly to the control group | an increase in the number of the apoptosis cells was observed | a suppressive effect on the weight increase in mesenteric lymph nodes was observed | that in mesenteric lymph nodes and submandibular lymph nodes were observed | decreased | increased significantly | increased |  |  |  |  |  |  |
| CC(=O)N[C@H]1[C@H](O[C@H]2[C@@H](O)[C@@H](COS(=O)(=O)O)O[C@@H](O[C@H]3[C@H](O)[C@@H](NC(C)=O)C(O)O[C@@H]3COS(=O)(=O)O)[C@@H]2O)O[C@H](COS(=O)(=O)O)[C@@H](O[C@@H]2O[C@H](COS(=O)(=O)O)[C@H](O)[C@H](O)[C@H]2O)[C@@H]1O (stereo partly drawn) [keratan sulfate tetrasaccharide (I), Gal(6S)β1-4GlcNAc(6S)β1-3Gal(6S)β1-4GlcNAc(6S)] |  |  |  |  |  |  |  |  | significantly less than that in the negative control group, and dose-dependent decrease was observed | significantly less than that in the negative control group | almost same as that in the keratan sulfate tetrasaccharide (I) 20 mg/kg administered group | a suppressive tendency for the weight increase in spleens and mesenteric lymph nodes was observed | 704 ± 148 mg | 1338 ± 311 mg |
